The source of these data is patent US10890586B2, “Methods and kits for assaying endoglycosidase activity” (Bio-Techne Corporation, priority 2016, dated 2021).

The EC50 is the concentration giving half of the maximal effect. Read a high EC50 as weaker potency.

For experiment [1], the target named is T1, HPSE (Homo sapiens, UniProt Q9Y251).
T1 construct: purchased Bio-Techne
T1 sequence (Q9Y251 158-543 limits assumed): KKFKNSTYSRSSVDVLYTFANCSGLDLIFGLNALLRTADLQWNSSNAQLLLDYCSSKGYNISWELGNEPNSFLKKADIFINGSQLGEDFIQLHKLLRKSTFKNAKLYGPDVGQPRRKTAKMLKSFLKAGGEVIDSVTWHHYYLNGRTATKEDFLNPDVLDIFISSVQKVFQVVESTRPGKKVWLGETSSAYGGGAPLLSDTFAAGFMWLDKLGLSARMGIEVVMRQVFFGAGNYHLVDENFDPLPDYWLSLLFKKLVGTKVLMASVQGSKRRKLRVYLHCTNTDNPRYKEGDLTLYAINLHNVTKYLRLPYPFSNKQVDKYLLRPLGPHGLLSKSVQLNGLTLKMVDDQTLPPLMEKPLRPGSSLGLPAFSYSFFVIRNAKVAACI
T1 sequence (Q9Y251 36-109 limits assumed): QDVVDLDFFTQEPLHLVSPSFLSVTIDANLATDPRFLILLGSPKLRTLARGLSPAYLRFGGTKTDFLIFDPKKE
The experiment in a line: HPSE inhibitor study (ELISA-based HPSE activity assay with labeled rhSynd4). Particulars: 10 ng HPSE, 50 mM NaAc pH 4.0, 37° C. for two hours, OD 450. The experiment is classed as biochemical. Background: ELISA stands for enzyme-linked immunosorbent assay.
Description: In order to prepare the sample for the assay, the goat anti-human Syndecan-4 capture antibody was diluted to a working concentration in PBS without carrier protein. A 96-well microplate was immediately coated with 100 μL per well of the diluted capture antibody. The plate was sealed and incubated overnight at room temperature. Each well was subsequently aspirated and washed with wash buffer, repeating the process two times for a total of three washes. The wash buffer is 25 mM Tris (pH 7.6), 137 mM NaCl, and 0.01% Tween (TBST). Each well was washed by filling each well with 400 μL of wash buffer using a squirt bottle, manifold dispenser, or autowasher. After the last wash, any remaining wash buffer was removed by aspirating or by inverting the plate and blotting it against clean paper towels. The microplate was then blocked by adding 300 μL of reagent diluent to each well and incubating the microplate for a minimum of 1 hour. The microplate was then aspirated/washed as described above for a total of three washes, and the microplate was thus ready for sample addition.
To perform the ELISA assay, 100 μL of the HPSE treated mixture diluted with 1% BSA in PBS buffer were added per well. The HPSE treated mixture was diluted such that the concentration of rhSynd4 was 25 ng/ml. […]
The absorbance (OD 450) for each of the three compounds was determined using a microplate reader set to 450 nm. […]

Experiment [2] addresses goat anti-human lumican capture antibody. The experiment in a line: ELISA detection of KS non-reducing end labeled recombinant lumican. It is filed as binding. To be noted: 0-100 ng labeled lumican, 80 ng/well capture antibody, OD 450. As for the experimental part: This study confirmed that the endoglycosidase activity assay of this disclosure is applicable to other endoglycosidases in addition to HPSE. An ELISA assay was first used to detect labeled recombinant lumican. The non-reducing ends of KS chains on recombinant human lumican were labeled through in vitro incorporation of GlcNAz by B3GNT2 (a KS specific GlcNAc transferase) according to the procedure described in Example 2 above. Increasing amounts of the labeled lumican (0-100 ng) were subsequently immobilized on a 96-well plate coated with 80 ng/well of goat anti-human lumican capture antibody. A DuoSet ELISA kit of Human Lumican was used to perform an ELISA assay similarly to the procedure described in Example 4 above. The absorbance (OD 450) of each well was determined using a microplate reader set to 450 nm. FIG. 8 is a graph of the OD 450 of increasing amounts of labeled lumican. The data was fit to the equation y=Cx/(Kd+x) to obtain curve 802, where Kd is the ligand-receptor binding affinity (dissociation constant for lumican bound to the capture antibody).

In experiment [3] the target is goat anti-human Syndecan-4 capture antibody. As to the kind of experiment: ELISA detection of HS non-reducing end labeled rhSynd4. To be noted: 0-50 ng labeled rhSynd4, 80 ng/well capture antibody, OD 450, fit y=Cx/(Kd+x). The experiment is classed as binding. Here is the method:
In order to establish a high throughput compatible method for HS detection, an ELISA assay was used to attempt to detect labeled rhSynd4. The non-reducing ends of HS chains on rhSynd4 were labeled according to Example 2 above. Increasing amounts of the labeled rhSynd4 (0-50 ng) were subsequently immobilized on a 96-well plate coated with 80 ng/well of goat anti-human Syndecan-4 capture antibody. The Syndecan-4 DuoSet kit was used to perform an ELISA assay (described in detail in Example 4 below). The absorbance (OD 450) of each well was determined using a microplate reader set to 450 nanometers (nm).
FIG. 4 is a graph of the OD 450 of increasing amounts of labeled rhSynd4. The data was fit to the equation y=Cx/(Kd+x) to obtain curve 402, where Kd is the ligand-receptor binding affinity (dissociation constant for rhSynd4 bound to the capture antibody).

In turn, chondroitin sulfate registered an EC50 in experiment [1] of 0.39 µg/mL.

The molecule heparin returned an EC50 in experiment [1] of 0.12 µg/mL.

Take “labeled lumican: recombinant human lumican with KS non-reducing ends labeled with GlcNAz by B3GNT2”: in experiment [2], the “Kd (dissociation constant for lumican bound to the capture antibody)” value is 7.58 ng.

B1: labeled rhSynd4: recombinant human Syndecan-4 with HS non-reducing ends labeled with GlcNAz and biotin by click chemistry (protein, UniProt P31431 19-198, looked up)
Syndecan-4: ESIRETEVIDPQDLLEGRYFSGALPDDEDVVGPGQESDDFELSGSGDLDDLEDSMIGPEVVHPLVPLDNHIPERAGSGSQVPTEPKKLEENEVIPKRISPVEESEDVSNKVSMSSTVQGSNIFERTEVLAALIVGGIVGILFAVFLILLLMYRMKKKDEGSYDLGKKPIYKKAPTNEFYA
modifications: HS ends labeled GlcNAz and biotin
notes: recombinant human Syndecan-4 with HS non-reducing ends labeled with GlcNAz and biotin by click chemistry
With B1, the “Kd (dissociation constant for rhSynd4 bound to the capture antibody)” value in experiment [3] stood at 3.4 ng.
